# Biological target: T1, Sodium/glucose cotransporter 2 (Homo sapiens, UniProt P31639)
# T1 sequence (P31639 whole entry): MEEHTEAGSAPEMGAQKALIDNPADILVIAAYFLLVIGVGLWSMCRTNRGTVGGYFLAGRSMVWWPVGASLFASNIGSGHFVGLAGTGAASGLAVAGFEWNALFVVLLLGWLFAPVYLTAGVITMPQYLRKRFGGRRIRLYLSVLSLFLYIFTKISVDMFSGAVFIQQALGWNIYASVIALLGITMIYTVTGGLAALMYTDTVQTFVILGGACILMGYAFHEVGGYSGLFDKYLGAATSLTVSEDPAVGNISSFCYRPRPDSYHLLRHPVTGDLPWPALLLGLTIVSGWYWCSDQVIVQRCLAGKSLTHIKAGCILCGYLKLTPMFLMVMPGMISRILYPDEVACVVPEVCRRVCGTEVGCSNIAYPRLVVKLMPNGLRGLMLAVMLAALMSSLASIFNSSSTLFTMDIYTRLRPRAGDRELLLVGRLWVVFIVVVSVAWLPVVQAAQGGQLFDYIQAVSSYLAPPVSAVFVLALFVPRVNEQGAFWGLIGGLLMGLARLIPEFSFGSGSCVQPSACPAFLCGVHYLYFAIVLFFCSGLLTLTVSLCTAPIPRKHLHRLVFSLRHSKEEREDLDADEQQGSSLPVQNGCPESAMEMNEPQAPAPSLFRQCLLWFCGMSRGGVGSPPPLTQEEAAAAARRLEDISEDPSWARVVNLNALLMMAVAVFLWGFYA
# Assay: Inhibition Assay: For sodium-dependent glucose transport assay, cells expressing hSGLT2 were seeded into a 96-well culture plate at a density of 5x10^4 cells/well in RPMI medium 1640 containing 10% fetal bovine serum. The cells were used 1 day after plating. They were incubated in pretreatment buffer (10 mM HEPES, 5 mM Tris, 140 mM choline chloride, 2 mM KCl, 1 mM CaCl2, and 1 mM MgCl2, pH 7.4) at 37 C. for 10 min. They were then incubated in uptake buffer (10 mM HEPES, 5 mM Tris, 140 mM NaCl, 2 mM KCl, 1 mM CaCl2, 1 mM MgCl2, and 1 mM 14C-nonlabeled AMG pH 7.4) containing 14C-labeled AMG (8 uM) and the inventive compound or dimethyl sulfoxide (DMSO) vehicle at 37 C. for 2 h. Cells were washed twice with washing buffer (pretreatment buffer containing 10 mM AMG at room temperature) and then the radioactivity was measured using a liquid scintillation counter. IC50 was determined by nonlinear regression analysis using GraphPad PRISM [Katsuno, K. et al. J. Pharmacol. Exp. Ther. 2007, 320, 323-330].
row,IC50 [nM],Compound
1,3.49,OC[C@H]1O[C@@H](c2cc(Cc3ccc(N4CCC4)cc3)c(Cl)c3c2CCO3)[C@H](O)[C@@H](O)[C@@H]1O
2,1.75,OC[C@H]1O[C@@H](c2cc(Cc3ccc(N4CCC4)cc3)c(Cl)c3c2CCC3)[C@H](O)[C@@H](O)[C@@H]1O

# Second part, the compound before the results:
row,Compound,IC50 [nM]
1,CCOc1ccc(Cc2cc([C@@H]3O[C@H](CO)[C@@H](O)[C@H](O)[C@H]3O)c3c(c2Cl)NCCO3)cc1,2.42
2,CCOc1ccc(Cc2cc([C@@H]3O[C@H](CO)[C@@H](O)[C@H](O)[C@H]3O)c3c(c2C2CC2)OCC3)cc1,13.8
3,CCOc1ccc(Cc2cc([C@@H]3O[C@H](CO)[C@@H](O)[C@H](O)[C@H]3O)c3c(c2Cl)OCO3)cc1,1.08
